# Where no end group is shown, it is not given here. [ ]: non-standard residue; d: D form. Aib = CC(C)(N)C(=O)O
# What was measured:
# [1] = target: T1, GLP-1R (PathHunter CHO-K1-βarr2-EA-GLP-1R cells) (Homo sapiens, UniProt P43220); assay: PathHunter β-arrestin-2 recruitment assay; type: cell-based
# T1 construct: host or cells: CHO-K1 (PathHunter, co-expressing β-arrestin-2-EA)
# Experimental: PathHunter CHO‐K1‐βarr2‐EA‐GLP‐1R cells were stimulated with agonist for 30 minutes at 37°C in Ham's F12 medium without FBS. At the end of the incubation period, cells were lysed by addition of PathHunter detection reagents and luminescent signal was subsequently recorded from each well.
# [2] = target: T2, human SNAP-GLP-1R (HEK293-SNAP-GLP-1R cells) (Homo sapiens, UniProt P43220); assay: cAMP assay (HTRF) in HEK293-SNAP-GLP-1R cells; type: cell-based
# T2 construct: expressed in transfected cells
# T2 sequence (P43220 24-463): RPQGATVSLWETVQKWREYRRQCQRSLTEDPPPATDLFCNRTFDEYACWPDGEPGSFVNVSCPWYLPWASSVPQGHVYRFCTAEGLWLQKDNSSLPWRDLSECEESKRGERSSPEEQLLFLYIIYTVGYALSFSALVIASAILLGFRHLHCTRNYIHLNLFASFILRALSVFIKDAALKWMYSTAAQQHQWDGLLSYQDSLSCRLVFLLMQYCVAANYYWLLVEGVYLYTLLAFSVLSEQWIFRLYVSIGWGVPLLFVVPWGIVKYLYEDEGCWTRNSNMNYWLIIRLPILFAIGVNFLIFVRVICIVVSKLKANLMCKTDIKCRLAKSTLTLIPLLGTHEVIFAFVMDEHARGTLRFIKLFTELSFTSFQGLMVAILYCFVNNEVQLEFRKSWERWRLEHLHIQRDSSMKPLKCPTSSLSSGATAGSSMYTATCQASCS
# Experimental: HEK293‐SNAP‐GLP‐1R cells were stimulated with agonist for 30 minutes at 37°C, either in serum‐free media (SFM) or SFM supplemented with 2% human serum albumin (HSA; Sigma Aldrich, Poole, UK). cAMP was determined at the end of the incubation period by homogenous time‐resolved fluorescence (HTRF; cAMP Dynamic 2 kit; Cisbio) using a Spectramax i3x plate reader (Molecular Devices, Wokingham, UK).
# For in vitro data, the average of within‐assay replicates was counted as one biological replicate. For kinetic binding assays, rate constants for association and dissociation of the unlabelled ligands were calculated using the “kinetics of competition binding” algorithm in PRISM 8 (GraphPad Software), using values for exendin(9‐39)‐FITC determined in the same experiment. Functional concentration response data were fitted using three‐parameter logistic fitting (PRISM 8), with constraints applied where appropriate. Pharmacokinetic analysis was performed using Phoenix® Win‐Nonlin® (Version 8.0). Statistical comparisons were performed using Student's t‐test or one‐way ANOVA, as appropriate. Paired or matched analyses were performed where permitted by the experimental design. Specific post hoc tests are indicated in the legends. Statistical significance was assigned where P < 0.05. […]
# [3] = test system: HFHS diet-fed C57BL6/J mice; assay: Study in high-fat, high-sucrose diet-fed mice; type: in vivo, mouse; conditions: end of study, n = 3
# Experimental: Male C57BL6/J mice were purchased from Charles River (UK). The mice were housed in a pathogen‐free facility with a 12‐hour light/12‐hour dark cycle. From the age of 8 weeks they were put on a 58 kcal % fat and sucrose diet (D12331; Research Diets Inc., New Brunswick, New Jersey) for 8 weeks to induce obesity and glucose intolerance. […] Body weight was monitored at regular intervals. For glucose tolerance testing, mice were fasted overnight (total 16 hours) and given free access to water. At 9:00 AM, glucose (3 g/kg body weight) was administered via intraperitoneal injection or oral gavage. Blood was sampled from the tail vein at 0, 5, 15, 30, 60 and 90 minutes after glucose administration. Blood glucose was measured with an automatic glucometer (Accuchek; Roche, Burgess Hill, UK). To quantify circulating insulin, 10 μL blood was collected from the tail vein into heparin‐coated tubes (Sarstedt, Beaumont Leys, UK). Plasma was separated by sedimentation at 10 000g for 10 minutes at 4°C. Plasma insulin levels were measured in 5‐μL aliquots by ELISA kits from Crystal Chem (Elk Grove Village, Illinois). At the end of the study, pancreata were isolated and processed for immunohistochemistry.
# [4] = Plasma pharmacokinetic study in CD-1 mice; type: in vivo, mouse; conditions: male CD-1 mice, single s.c. 1 mg/kg, LC-MS/MS, n = 5 per timepoint
# Experimental: A plasma pharmacokinetic study of GL0034 was performed in male CD‐1 Mice (6‐9 weeks of age; 30‐50 g body weight) procured from the Laboratory Animal Resources Department of Sun Pharma Advanced Research Company Ltd (www.sparc.life, a subsidiary of Sun Pharma Industries Ltd.). For full details see Supplementary Methods.
# (§1) For in vitro data, the average of within‐assay replicates was counted as one biological replicate. For kinetic binding assays, rate constants for association and dissociation of the unlabelled ligands were calculated using the “kinetics of competition binding” algorithm in PRISM 8 (GraphPad Software), using values for exendin(9‐39)‐FITC determined in the same experiment. Functional concentration response data were fitted using three‐parameter logistic fitting (PRISM 8), with constraints applied where appropriate. Pharmacokinetic analysis was performed using Phoenix® Win‐Nonlin® (Version 8.0). Statistical comparisons were performed using Student's t‐test or one‐way ANOVA, as appropriate. Paired or matched analyses were performed where permitted by the experimental design. Specific post hoc tests are indicated in the legends. Statistical significance was assigned where P < 0.05. Data are represented as mean ± standard error of the mean (SEM) throughout, with individual replicates indicated where possible.
# Animals (n=45) were procured from Laboratory Animal Resources Dept. of Sun Pharma Advanced Research Company Ltd. (www.sparc.life, a subsidiary of Sun Pharma Industries Ltd.). Animals were acclimatized for one day. On day 0, each animal was weighed. Animals were divided into 9 groups, each group containing 5 male animals (one group representing one time-point). All the animals were injected subcutaneously at a dose of 1 mg/kg (dose volume: 10 ml/kg) using 26½ gauge needle attached to an appropriately graduated syringe. At 1, 2, 4, 8, 12, 24, 48, 72 and 96 hours after injection, ~500 µL of blood was collected from mice by retro-orbital plexus puncture using capillary micro-centrifuge tubes containing anticoagulant (15 µL of 10% K2EDTA per tube). Plasma was separated from the collected blood samples by centrifugation at ~3300 rpm (1985 g) for 10 min at 4°C ± 2°C. GL0034 concentrations were estimated using liquid chromatography with tandem mass spectrometry (LCMS-MS). Lower limit of quantitation (LLOQ) for GL0034 was 50 ng/mL.
# [5] = target: T2, human SNAP-GLP-1R (HEK293-SNAP-GLP-1R cells); assay: Time-resolved FRET kinetic competition binding vs exendin(9-39)-FITC
# Experimental: as §1
# [6] = target: human serum albumin (human) (UniProt P02768)
# [7] = target: human SNAP-GLP-1R (glucagon-like peptide-1 receptor) on HEK293 cells (human, UniProt P43220 24-463, SNAP tag labelled with SNAP-Lumi4-Tb); assay: cell-based or functional assay
# Sequence of human SNAP-GLP-1R (glucagon-like peptide-1 receptor) on HEK293 cells (P43220 24-463): as above
# T1 sequence (P43220 24-463): as above
molecule,measurement,setting,value
CC[C@H](C)[C@H](NC(=O)[C@H](Cc1ccccc1)NC(=O)[C@H](CCC(=O)O)NC(=O)[C@H](CCCCNC(=O)COCCOCCNC(=O)C(C)(C)NC(=O)CC[C@H](NC(=O)CCCCCCCCCCCCCCCCC(=O)O)C(=O)O)NC(=O)[C@H](C)NC(=O)[C@H](C)NC(=O)[C@H](CCC(N)=O)NC(=O)CNC(=O)[C@H](CCC(=O)O)NC(=O)[C@H](CC(C)C)NC(=O)[C@H](Cc1ccc(O)cc1)NC(=O)[C@H](CO)NC(=O)[C@H](CO)NC(=O)[C@@H](NC(=O)[C@H](CC(=O)O)NC(=O)[C@H](CO)NC(=O)[C@@H](NC(=O)[C@H](Cc1ccccc1)NC(=O)[C@@H](NC(=O)CNC(=O)[C@H](CCC(=O)O)NC(=O)C(C)(C)NC(=O)[C@@H](N)Cc1c[nH]cn1)[C@@H](C)O)[C@@H](C)O)C(C)C)C(=O)N[C@@H](C)C(=O)N[C@@H](Cc1c[nH]c2ccccc12)C(=O)N[C@@H](CC(C)C)C(=O)N[C@H](C(=O)N[C@@H](CCCNC(=N)N)C(=O)NCC(=O)N[C@@H](CCCNC(=N)N)C(=O)NCC(=O)N[C@@H](CC(C)C)C(=O)O)C(C)C [GL0034],Emax,"[1]; 30 min, 37°C, Ham's F12 without FBS, estimate ± SEM, n = 5",102 ± 1%
same,EC50,[1]; read-out: βarr2 LogEC50 (converted),79.4 nM
same,Emax,"[2]; 30 min, 37°C, estimate ± SEM, n = 5",97 ± 2%
same,EC50,[2]; read-out: cAMP LogEC50 (converted),0.631 nM
same,Plasma amylase levels,[3],no difference
same,Kel,[4],0.0906 h⁻¹
same,Cmax,"[4]; mouse, sc",921 nM
same,Tmax,"[4]; mouse, sc",4 h
same,half-life,"[4]; mouse, sc, read-out: t1/2 (plasma half-life) (converted)",7.65 h
same,Kd,[5],25.1 nM
same,koff,"[5]; HEK293-SNAP-GLP-1R, 37°C, competition with 10 nM exendin(9-39)-FITC, estimate ± SEM, n = 4",0.00367 s⁻¹
"CC[C@H](C)[C@H](NC(=O)[C@H](Cc1ccccc1)NC(=O)[C@H](CCC(=O)O)NC(=O)[C@H](CCCCNC(=O)COCCOCCNC(=O)COCCOCCNC(=O)CC[C@H](NC(=O)CCCCCCCCCCCCCCCCC(=O)O)C(=O)O)NC(=O)[C@H](C)NC(=O)[C@H](C)NC(=O)[C@H](CCC(N)=O)NC(=O)CNC(=O)[C@H](CCC(=O)O)NC(=O)[C@H](CC(C)C)NC(=O)[C@H](Cc1ccc(O)cc1)NC(=O)[C@H](CO)NC(=O)[C@H](CO)NC(=O)[C@@H](NC(=O)[C@H](CC(=O)O)NC(=O)[C@H](CO)NC(=O)[C@@H](NC(=O)[C@H](Cc1ccccc1)NC(=O)[C@@H](NC(=O)CNC(=O)[C@H](CCC(=O)O)NC(=O)C(C)(C)NC(=O)[C@@H](N)Cc1cnc[nH]1)[C@@H](C)O)[C@@H](C)O)C(C)C)C(=O)N[C@@H](C)C(=O)N[C@@H](Cc1c[nH]c2ccccc12)C(=O)N[C@@H](CC(C)C)C(=O)N[C@H](C(=O)N[C@@H](CCCNC(=N)N)C(=O)NCC(=O)N[C@@H](CCCNC(=N)N)C(=O)NCC(=O)O)C(C)C [Semaglutide, reference compound]",Plasma amylase levels,[3],no difference
GL0034 (peptide),∆pEC50 of GLP-1R cAMP signalling potency with and without 2% HSA (HEK293-SNAP-GLP-1R cells),[6],2.1
"H[Aib]EGTFTSDVSSYLEGQAAKEFIAWLVRGRGL (not fully specified (residue 20); also: K20 linker includes Aib, structure not given here) [GL0034]","GLP-1R endocytosis (high content imaging), HEK293-SNAP-GLP-1R cells, LogEC50 (M)",[7],-9.2 M (log)
same,"cAMP production, HEK293-SNAP-GLP-1R cells, 30 minutes, LogEC50 (M)",[7],-9.2 M (log)
